According to patent publication US5354747A, “2-, 3-, 4-, 5-, 6-, 7-, 8-, 9- and/or 10-substituted dibenzoxazepine and dibenzthiazepine compounds, pharmaceutical compositions and methods of use” (G. D. Searle & Co., priority 1993, dated 1994):
Where a name gives a salt, the structure may show the parent alone.

Tests used:
[1] = system: Charles River male albino mice; assay: Writhing Assay (PBQ-induced writhing, analgesic activity); type: in vivo; settings: Intragastric; for responders at 30 mg/kg / ED50: Mus musculus, po; for responders at 30 mg/kg: 25 min, read-out: number of mice out of nine or ten in which a test compound produced analgesia (converted); for responders at 30 mg/kg / number of mice out of nine or ten in which a test compound produced analgesia: 30 mg per kilogram of body weight 25 min before PBQ i.p., writhes equal to or less than one-half the control median; for ED50: PBQ writhing, mice, maximum likelihood function, read-out: calculated ED50 value (dose which produced analgesia in 50% of the mice)
Source text: The Writhing Assay is one of the most widely-used experimental procedures for measuring the analgesic activity of different narcotic and nonnarcotic analgesic agents, and involves the continuous, chemically-induced pain of visceral origin to an animal, such as a mouse or rat. [Gyires et al., Arch. int. Pharmacodyn, 267, 131-140 (1984); […] al., Fed. Proc., 15, 494 (1956); Koster et al., Fed. Proc., 18, 412 (1959); and Witken et al., J. Pharmacol. exp. Ther., 133, 400-408 (1961).] Chemicals which may be used to induce this pain include phenylbenzoquinone (PBQ) and acetic acid. As a result of the chemical irritation to the animal, a characteristic stretching and writhing of the animal (dorsiflexion of the animal's back, extension of its hindlimbs and the strong contraction of its abdominal musculature) will generally occur. […] Drugs which reduce the number of writhes of the animal appear to restore the normal nociceptive threshold of the animal. Charles River male albino mice, weighing 20 to 30 grams were used in this assay. Twenty-five minutes after intragastric administration to nine or ten mice of 30 mg per kilogram of body weight of a compound of the present invention ("test compound"), […] of body weight of a 0.025% w/v solution of PBQ was injected intraperitoneally into each mouse. Ten mice which were given saline in place of a test compound of the invention were used as a control group. Five minutes later, each mouse was individually placed into a glass beaker for observation, and the number of writhes occurring during the following ten-minute period was counted. A test compound was considered to have produced analgesia in a mouse if, in accordance with the conditions set forth above, and under the test criteria employed for this assay, after the administration of 30 mg per kilogram of body weight of a compound of the present invention to the mouse, the number of writhes elicited by a mouse injected with PBQ was equal to, or less than, one-half the median number of writhes recorded for the saline-treated control group of mice that day, as described by Taber in "Predictive Value of Analgesic Assays in Mice and Rats," Advances in Biochemical Psychopharmacology, 8, 191 (1974). […] If this initial screening dose of the test compound produced analgesia in seven of nine or ten mice, then the effect of additional doses of the test compound on the writhing response was evaluated, and then the ED50 value (that dose of a compound which produced analgesia in 50% of the mice to which the compound was administered) was generally calculated. A maximum likelihood function was used to determine the ED50 value. (The slopes of the dose-response curves for all test compounds analyzed were compared as described by Tallarida and Murray, Manual of Pharmacologic Calculations, Page 11 (Springer Verlag, New York, 1981)). The results for the particular compounds of the present invention analyzed in this assay, and discussed in the examples identified below which correspond thereto, are presented in Table 1 hereinbelow. The compounds of the present invention which were tested in this assay, and for which results are presented in Table 1, correspond to the particular examples specified in Table 1. The fractions indicate the number of mice out of nine or ten in which a test compound produced analgesia, and the whole numbers are the calculated ED50 values.

[2] = system: prostaglandin E2 -induced contractions of segments of guinea pig ileum; assay: Prostaglandin (PGE) Antagonism Assay; type: cell-based; settings: dose ratio of prostaglandin E2 EC50 doses with/without test compound, initial concentration 3 micromolar
Description: In order to determine the effectiveness of several of the compounds of the present invention ("test compounds") as prostaglandin E2 antagonists,a prostaglandin antagonism assay was conducted, as described below, to determine the ability of these compounds to inhibit prostaglandin E2 -induced contractions of segments of guinea pig ileum. […] Male albino guinea pigs weighing 200 to 500 grams were sacrificed by cervical dislocation. The ilea were then quickly removed from the guinea pigs and placed in a modified Tyrode solution, a solution which is known to those skilled in the art, containing one-half of the usual amount of magnesium ions. Segments of ileum about 2 cm long were then cut and mounted in a 10-mL tissue bath containing the modified Tyrode solution. The solution was maintained at 37° C. and aerated with a gaseous mixture of 95% oxygen and 5% carbon dioxide. Data for a control prostaglandin E2 dose response curve plotting concentration of prostaglandin E2 versus the intensity of contractions, detected isotonically, was then obtained by experimentally adjusting the dose of the prostaglandin E2 being injected into the tissue bath, in a manner known by those of skill in the art. Solutions or suspensions containing an initial concentration (3 micromolar) of a test compound in modified Tyrode solution ("test solutions/suspensions") were then separately substituted for the control bath solution. Each test solution/suspension was then kept in constant contact with the ileum tissue, except for brief periods to drain the bath in preparation for rinsing with fresh test solution/suspension. A second prostaglandin E2 dose response curve was then generated for prostaglandin E2 in the presence of a test compound. A dose ratio (DR) of EC50 doses was then calculated from the results of each test in a manner known by those of skill in the art. A control dose response curve (DRC) is produced in isolated segments of guinea pig ileum mounted in an automated apparatus with six concentrations of prostaglandin E2. A solution or suspension of test compound is substituted for the control bathing solution and is incubated for thirty minutes. An additional prostaglandin E2 dose response curve is produced in the presence of the test compound. A dose ratio is calculated from the EC50 values obtained from duplicate replications on each concentration of the test compound. […] The results of this prostaglandin antagonism assay are presented in Table 2 below in terms of their dose ratio. The compounds of the present invention which were tested in this assay, and for which results are presented in Table 2, correspond to the particular examples specified in Table 2.

Molecule | responders at 30 mg/kg [1] [%] | Dose Ratio [2] | ED50 [1] [mg/kg] | number of mice out of nine or ten in which a test compound produced analgesia [1]
CC(C)N1CCN(C(=O)N2Cc3ccccc3Oc3ccc(Cl)cc32)CC1.Cl [Example 22, 8-chloro-10,11-dihydro-10-[[4-(1-methylethyl]-1-piperazinyl]carbonyl]dibenz[b,f][1,4]oxazepine, hydrochloride] | 30 | 3.0 |  | 
O=C(C1CCN(C(=O)N2Cc3ccccc3Oc3ccc(Cl)cc32)CC1)N(CCO)CCO [Example 3, 1-[(8-chlorodibenz[b,f][1,4]oxazepin-10(11H)yl)carbonyl]-N,N-bis(2-hydroxyethyl)-4-piperidinecarboxamide] | 20 | 1.5 |  | 
CCOC(=O)C1CN(C(=O)N2Cc3ccccc3Oc3ccc(Cl)cc32)CCN1c1ccccc1 (centres unmarked) [Example 50, ethyl 4-[(8-chlorodibenz[b,f][1,4]oxazepin-10(11H)-yl)carbonyl]-1-phenyl-2-piperazinecarboxylate] |  | 2.7 |  | 
Cl.O=C(Cc1cccnc1)N1CCN(C(=O)N2Cc3ccccc3Oc3ccc(Cl)cc32)CC1 [Example 56, 1-[(8-chlorodibenz[b,f][1,4]oxazepin-10(11H)-yl)carbonyl]-4-(3-pyridinylacetyl)piperazine, monohydrochloride] | 50 | 3.3 |  | 
O=C(CCc1cccnc1)N1CCN(C(=O)N2Cc3ccccc3Oc3ccc(Cl)cc32)CC1 [Example 33, 1-[(8-chlorodibenz[b,f][1,4]oxazepin-10(11H)-yl)carbonyl]-4-[(1-oxo-3-(3-pyridinyl)propyl]piperazine, monohydrochloride] | 80 | 6.7 |  | 
Cl.O=C(N1CCN(CCc2ccccc2)CC1)N1Cc2ccccc2Oc2ccc(Cl)cc21 [Example 40, 8-Chloro-10,11-dihydro-10-[[4-(2-phenylethyl)-1-piperazinyl]carbonyl]dibenz[b,f][1,4]oxazepine, monohydrochloride] | 20 | 4.1 |  | 
CCCCCCCCCCN1CCN(C(=O)N2Cc3ccccc3Oc3ccc(Cl)cc32)CC1.Cl [Example 15, 8-chloro-10-[(4-decyl-1-piperazinyl)carbonyl]-10,11-dihydrodibenz[b,f][1,4]oxazepine, monohydrochloride] |  | 2.1 | 6.4 | 
Cl.O=C(c1cccnc1)N1CCN(C(=O)N2Cc3ccccc3Oc3ccc(Cl)cc32)CC1 [Example 58, 1-[(8-chlorodibenz[b,f][1,4]oxazepin-10(11H)-yl)carbonyl]-4-(3-pyridinylcarbonyl)piperazine, hydrochloride] | 70 | 6.6 |  | 
Cl.O=C(c1ccncc1)N1CCN(C(=O)N2Cc3ccccc3Oc3ccc(Cl)cc32)CC1 [Example 29, 1-[(8-chlorodibenz[b,f][1,4]oxazepin-10(11H)-yl)carbonyl]-4-(4-pyridinylcarbonyl)piperazine, monohydrochloride] | 50 | 2.2 |  | 
CCN(CC)CCC1=CCN(C(=O)N2Cc3ccccc3Oc3ccc(Cl)cc32)CC1.Cl [Example 67, 8-chloro-10-[[4-[2-(diethylamino)ethyl]-3,6-dihydro-1(2H)-pyridinyl]carbonyl]-10,11-dihydrobenz[b,f][1,4]oxazepine, hydrochloride] |  | 10.2 |  | 6/10
CCCN1CCCN(C(=O)N2Cc3ccccc3Oc3ccc(Cl)cc32)CC1 [Example 24, monohydrochloride] |  | 11.9 | 14.7 | 
8-chloro-10,11-dihydro-10-[[4-(2-pyridinyl)-1-piperazinyl]carbonyl]dibenz[b,f][1,4]oxazepine, monohydrochloride [Example 11] |  |  |  | 1/10
O=C(N1CCNCC1)N1Cc2ccccc2Oc2ccc(Cl)cc21 [Example 25, 8-chloro-10,11-dihydro-10-(1-piperazinylcarbonyl)dibenz[b,f][1,4]oxazepine, monohydrochloride] | 50 | 1.6 |  | 
Cl.O=C(N1CCN(c2ccccc2)CC1)N1Cc2ccccc2Oc2ccc(Cl)cc21 [Example 43, 8-chloro-10,11-dihydro-10-[(4-phenyl-1-piperazinyl)carbonyl]dibenz[b,f][1,4]oxazepine, hydrochloride] | 10 | 0.8 |  | 
O=C(N1CCC(N2CCCC2)CC1)N1Cc2ccccc2Oc2ccc(Cl)cc21 [Example 34, 8-chloro-10,11-dihydro-10-[[4-(1-pyrrolidinyl)-1-piperidinyl]carbonyl]dibenz[b,f][1,4]oxazepine] | 70 |  |  | 
O=C(N1Cc2ccccc2Oc2ccc(Cl)cc21)N1CCCCC1CCN1CCCC1 (centres unmarked) [Example 49, 8-chloro-10,11-dihydro-10-[[2-[2-(1-pyrrolidinyl)ethyl]-1-piperidinyl]carbonyl]dibenz[b,f][1,4]oxazepine, hydrochloride] | 20 |  |  | 
O=C(Cc1ccncc1)N1CCN(C(=O)N2Cc3ccccc3Oc3ccc(Cl)cc32)CC1 [Example 79, 1-[(8-Chlorodibenz[b,f][1,4]oxozepin-10(11H)-yl)carbonyl]-4-[1-oxo-2(4-pyridinyl)-ethyl]piperazine, monohydrochloride, monohydrate] |  | 10 |  | 
O=C(c1ccco1)N1CCN(C(=O)N2Cc3ccccc3Oc3ccc(Cl)cc32)CC1 [Example 38, 1-[(8-chlorodibenz[b,f][1,4]oxazepin-10(11H)-yl)carbonyl]-4-(2-furanylcarbonyl)piperazine] | 10 |  |  | 
Cl.O=C(Cc1ccncc1)N1CCCN(C(=O)N2Cc3ccccc3Oc3ccc(Cl)cc32)CC1 [Example 81, 1-[(8-chlorodibenz[b,f][1,4]oxazepin-10(11H)-yl)carbonyl]hexahydro-4-(4-pyridinylacetyl)-1H-1,4-diazepine, monohydrochloride] |  | 32 |  | 
Cl.O=C(N1CCC(N2CCCC2)CC1)N1Cc2ccccc2Oc2ccc(Cl)cc21 [Example 35, 8-chloro-10,11-dihydro-10-[[4-(1-pyrrolidinyl)-1-piperidinyl]carbonyl]dibenz[b,f][1,4]oxazepine, hydrochloride] |  | 1.0 |  | 
